Target: T1, IGF-1R Ba/F3 (Homo sapiens, UniProt P08069)
T1 construct: fused on or other part: TEL- (or BCR-) IGF-1R in Ba/F3: the kinase part holds the site
Test: Ba/F3 Cell Viability Inhibition Assay (IGF-1R Ba/F3)
Type: cell-based, murine
Details: Tel-TK transformed Ba/F3 cells, 48 hours, Britelite luminescence
In short: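 A 48 h compound treatment at 37 °C (3750 cells/well) was followed by Britelite luminescence to measure viability. Cells were Ba/F3 pro-B cells, IL-3-independent via TEL-fused IGF-1R kinase transduction. A logistic fit gave IC50 as 50% viability relative to DMSO control.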

T1 sequence (P08069 999-1274 limits assumed): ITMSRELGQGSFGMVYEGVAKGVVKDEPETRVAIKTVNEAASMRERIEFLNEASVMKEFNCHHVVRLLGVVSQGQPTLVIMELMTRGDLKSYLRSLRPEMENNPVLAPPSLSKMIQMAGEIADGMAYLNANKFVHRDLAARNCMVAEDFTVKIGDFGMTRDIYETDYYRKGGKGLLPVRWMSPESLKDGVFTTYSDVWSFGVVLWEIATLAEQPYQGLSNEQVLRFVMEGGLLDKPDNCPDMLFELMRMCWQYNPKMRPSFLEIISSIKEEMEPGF

Row | Structure (SMILES) | IC50
1 | CNC(=O)CN1CCC(c2cc(F)c(Nc3ncc(Cl)c(Nc4cc(C5CC5)[nH]n4)n3)cc2C)CC1 [Compound 32, 2-(4-(4-(5-chloro-4-(5-cyclopropyl-1H-pyrazol-3-ylamino)pyrimidin-2-ylamino)-5-fluoro-2-methylphenyl)piperidin-1-yl)-N-methylacetamide] | 42 nM
2 | Cc1cc(Nc2nc(Nc3cc(C)c(C4CCN(C(=O)[C@@H]5COCCN5C(C)C)CC4)cc3F)ncc2Cl)n[nH]1 [Compound 126, (S)-(4-(4-(5-chloro-4-(5-methyl-1H-pyrazol-3-ylamino)pyrimidin-2-ylamino)-5-fluoro-2-methylphenyl)piperidin-1-yl)(4-isopropylmorpholin-3-yl)methanone] | 29 nM
3 | Cc1cc(Nc2nc(Nc3cc(C)c(C4CCN(CCS(=O)(=O)N(C)C)CC4)cc3F)ncc2Cl)n[nH]1 [Compound 58, 2-(4-(4-(5-chloro-4-(5-methyl-1H-pyrazol-3-ylamino)pyrimidin-2-ylamino)-5-fluoro-2-methylphenyl)piperidin-1-yl)-N,N-dimethylethanesulfonamide] | 36 nM
4 | Cc1cc(Nc2nc(Nc3cc(C)c(C4CCN(C(=O)CN5CCOCC5)CC4)cc3C)ncc2Cl)n[nH]1 [Compound 102, 1-(4-(4-(5-chloro-4-(5-methyl-1H-pyrazol-3-ylamino)pyrimidin-2-ylamino)-2,5-dimethylphenyl)piperidin-1-yl)-2-morpholinoethanone] | 9 nM
5 | Cc1cc(C2CCNCC2)c(C)cc1Nc1ncc(Cl)c(Nc2cc(C3CC3)[nH]n2)n1 [Compound 18, 5-chloro-N4-(5-cyclopropyl-1H-pyrazol-3-yl)-N2-(2,5-dimethyl-4-(piperidin-4-yl)phenyl)pyrimidine-2,4-diamine] | 95 nM
6 | CCN1CCC(c2cc(F)c(Nc3ncc(Cl)c(Nc4cc(C)[nH]n4)n3)cc2C(F)(F)F)CC1 [Compound 240, 5-chloro-N2-(4-(1-ethylpiperidin-4-yl)-2-fluoro-5-(trifluoromethyl)phenyl)-N4-(5-methyl-1H-pyrazol-3-yl)pyrimidine-2,4-diamine] | 102 nM
7 | Cc1cc(Nc2nc(Nc3cc(C)c(C4CCN(C5CNC5)CC4)cc3F)ncc2Cl)n[nH]1 [Compound 296, N2-(4-(1-(azetidin-3-yl)piperidin-4-yl)-2-fluoro-5-methylphenyl)-5-chloro-N4-(5-methyl-1H-pyrazol-3-yl)pyrimidine-2,4-diamine] | 101 nM
8 | Cc1cc(Nc2nc(Nc3cc(C4CCNCC4)c(F)cc3C)ncc2Cl)n[nH]1 [Compound 8, 5-chloro-N2-(4-fluoro-2-methyl-5-(piperidin-4-yl)phenyl)-N4-(5-methyl-1H-pyrazol-3-yl)pyrimidine-2,4-diamine] | 1930 nM
9 | Cc1cc(Nc2nc(Nc3cc(C)c(C4CCN(C(=O)N5CCN(C)CC5)CC4)cc3F)ncc2Cl)n[nH]1 [Compound 112, (4-(4-(5-chloro-4-(5-methyl-1H-pyrazol-3-ylamino)pyrimidin-2-ylamino)-5-fluoro-2-methylphenyl)piperidin-1-yl)(4-methylpiperazin-1-yl)methanone] | 21 nM
10 | Cc1cc(Nc2nc(Nc3cc(Cl)c(C4CCN(C(=O)CN5CCC5)CC4)cc3C)ncc2Cl)n[nH]1 [Compound 96, 2-(azetidin-1-yl)-1-(4-(2-chloro-4-(5-chloro-4-(5-methyl-1H-pyrazol-3-ylamino)pyrimidin-2-ylamino)-5-methylphenyl)piperidin-1-yl)ethanone] | 24 nM
11 | Cc1ccc(N2CCC(c3cc(F)c(Nc4ncc(Cl)c(Nc5cc(C)[nH]n5)n4)cc3C)CC2)nn1 [Compound 277, 5-Chloro-N2-(2-fluoro-5-methyl-4-(1-(6-methylpyridazin-3-yl)piperidin-4-yl)phenyl)-N4-(5-methyl-1H-pyrazol-3-yl)pyrimidine-2,4-diamine] | 97 nM
12 | Cc1cc(Nc2nc(Nc3cc(C)c(C4CCN(C5CC5)CC4)cc3C)ncc2Cl)n[nH]1 [Compound 250, 5-chloro-N2-(4-(1-cyclopropylpiperidin-4-yl)-2,5-dimethylphenyl)-N4-(5-methyl-1H-pyrazol-3-yl)pyrimidine-2,4-diamine] | 25 nM
13 | Cc1cc(Nc2nc(Nc3cc(C)c(C4CCN(C(=O)n5cnnn5)CC4)cc3F)ncc2Cl)n[nH]1 [Compound 140, (4-(4-(5-chloro-4-(5-methyl-1H-pyrazol-3-ylamino)pyrimidin-2-ylamino)-5-fluoro-2-methylphenyl)piperidin-1-yl)(1H-tetrazol-1-yl)methanone] | 139 nM
14 | CCc1noc(CN2CCC(c3cc(F)c(Nc4ncc(Cl)c(Nc5cc(C)[nH]n5)n4)cc3C)CC2)n1 [Compound 284, 5-chloro-N2-(4-(1-((3-ethyl-1,2,4-oxadiazol-5-yl)methyl)piperidin-4-yl)-2-fluoro-5-methylphenyl)-N4-(5-methyl-1H-pyrazol-3-yl)pyrimidine-2,4-diamine] | 33 nM
15 | Cc1cc(Nc2nc(Nc3cc(C)c(C4CCN(C5CCC(O)CC5)CC4)cc3F)ncc2Cl)n[nH]1 (stereo not drawn) [Compound 298, 4-(4-(4-(5-chloro-4-(5-methyl-1H-pyrazol-3-ylamino)pyrimidin-2-ylamino)-5-fluoro-2-methylphenyl)piperidin-1-yl)cyclohexanol] | 26 nM
16 | Cc1cc(Nc2nc(Nc3cc(C)c(C4CCN(C(=O)CCN5CCOCC5)CC4)cc3C)ncc2Cl)n[nH]1 [Compound 225, 1-(4-(4-(5-Chloro-4-(5-methyl-1H-pyrazol-3-ylamino)pyrimidin-2-ylamino)-2,5-dimethylphenyl)piperidin-1-yl)-3-morpholinopropan-1-one] | 17 nM
17 | Cc1cc(Nc2nc(Nc3cc(C)c(C4CCN(CCS(N)(=O)=O)CC4)cc3F)ncc2Cl)n[nH]1 [Compound 59, 2-(4-(4-(5-chloro-4-(5-methyl-1H-pyrazol-3-ylamino)pyrimidin-2-ylamino)-5-fluoro-2-methylphenyl)piperidin-1-yl)ethanesulfonamide] | 38 nM
18 | Cc1cc(Nc2nc(Nc3cc(C)c(C4CCN(C(=O)C5(N)CC5)CC4)cc3F)ncc2Cl)n[nH]1 [Compound 93, (1-aminocyclopropyl)(4-(4-(5-chloro-4-(5-methyl-1H-pyrazol-3-ylamino)pyrimidin-2-ylamino)-5-fluoro-2-methylphenyl)piperidin-1-yl)methanone] | 33 nM
19 | CC[N+]1([O-])CCC(c2cc(F)c(Nc3ncc(Cl)c(Nc4cc(C)[nH]n4)n3)cc2C)CC1 (stereo not drawn) [Compound 289, 4-(4-(5-chloro-4-(5-methyl-1H-pyrazol-3-ylamino)pyrimidin-2-ylamino)-5-fluoro-2-methylphenyl)-1-ethylpiperidine-1-oxide] | 370 nM
20 | Cc1cc(Nc2nc(Nc3cc(C)c(C4CCN(S(=O)(=O)CCCN5CC[C@@H](O)C5)CC4)cc3C)ncc2Cl)n[nH]1 [Compound 234, (R)-1-(3-(4-(4-(5-chloro-4-(5-methyl-1H-pyrazol-3-ylamino)pyrimidin-2-ylamino)-2,5-dimethylphenyl)piperidin-1-ylsulfonyl)propyl)pyrrolidin-3-ol] | 73 nM
21 | CCc1noc(CN2CCC(c3cc(C)c(Nc4ncc(Cl)c(Nc5cc(C)[nH]n5)n4)cc3C)CC2)n1 [Compound 303, 5-chloro-N2-(4-(1-((3-ethyl-1,2,4-oxadiazol-5-yl)methyl)piperidin-4-yl)-2,5-dimethylphenyl)-N4-(5-methyl-1H-pyrazol-3-yl)pyrimidine-2,4-diamine] | 6 nM

— US8859574B2 (IRM LLC, priority 2008, dated 2014)
